Test results from patent US9446007B2, “Methods for maintaining or improving health, well-being and/or a physiological function in a subject” (DYNAMIS THERAPEUTICS, INC., priority 2012, dated 2016).

Tests used:
triglyceride = assay: Serum triglyceride levels; format: in vivo, KK.Cg-A^y/+/J diabetic mice; conditions: 18 mM in drinking water for 32 weeks; n=9; control 752.21±201.29; p<0.001
Protocol: Serum triglyceride levels were measured in KK.Cg-A^y/+/J diabetic mice treated with 18 mM meglumine hydrochloride in the drinking water for 32 weeks. […] A t-test was used to compare the mean values and a p<0.001 was calculated, indicating the decrease in plasma triglycerides in the meglumine treated mice is statistically significant.

[1] = Effects of meglumine in a human subject (Example 7); format: in vivo; conditions: person on a blood thinner; orally daily, 1 month
Source text: A person on a blood thinner medication was orally administered meglumine hydrochloride on a daily basis over the period of 1 month.

[2] = Effects of meglumine in a human subject (Example 9); format: in vivo; conditions: orally daily, 7 months
Source text: A person suffering from high blood sugar was orally administered meglumine hydrochloride on a daily basis over the period of 7 months.

[3] = Effects of meglumine in a human subject (Example 8); format: in vivo; conditions: overweight person, 500-1,500 mg orally daily, 14 months
Protocol: A person was overweight and suffering from fatty liver, experienced sore joints, lacked energy and required extended recovery time after exercise & travel, was orally administered 500-1,500 mg of meglumine hydrochloride on a daily basis over the period of 14 months.

[4] = Effects of meglumine in a human subject (Example 10); format: in vivo; conditions: person
Protocol: A person, suffering from scleroderma and type 2 diabetes, overweight and with difficulty to lose through dieting and exercise, experiencing less energy than when younger, was administered meglumine hydrochloride (500 mg to 2000 mg) orally almost every day over 5 years.

[5] = Effects of meglumine in a human subject (Example 11): blood lipids, lipoproteins, inflammation markers; format: in vivo; conditions: person, type 2 diabetes, 3×500 mg orally, with metformin
Protocol: A person, suffering from type 2 diabetes, overweight (height of 5 feet 1 inch, and weight of 129 pounds, as of month 0) and with difficulty to lose weight through dieting and exercise, was administered meglumine hydrochloride (3×500 mg) orally over the period of 8 months. Over the duration of the study the subject was also administered metformin orally to manage their type 2 diabetes. The subject's blood was analyzed for lipids, lipoprotein particles and apolipoproteins, and inflammation/oxidation markers.

[6] = Effects of meglumine in a human subject (Example 5); format: in vivo; conditions: person, 500-1,500 mg orally daily over 5 years
Protocol: A person suffering from right knee joint pain, and otherwise in good health, was orally administered 500-1,500 mg of meglumine hydrochloride on a daily basis over the period of 5 years (with two months off).

[7] = Effects of meglumine in a human subject (Example 6); format: in vivo; conditions: orally daily, one month
Source text: A person suffering from high blood pleasure was orally administered meglumine hydrochloride on a daily basis over the period of one month.

albumin/creatinine ratio = assay: Urinary albumin/creatinine; format: in vivo, KK.Cg-A^y/+/J and KK.Cg-A^+/+/J mice; conditions: 18 mM in drinking water, 12 weeks, not significant
Protocol: Urinary creatinine and albumin levels were measured in KK.Cg-A^y/+/J “mutant” diabetic mice and KK.Cg-A^+/+/J “control” mice treated with or without 18 mM meglumine hydrochloride in the drinking water for 12 weeks.

[8] = 500 mg to 2000 mg orally over 5 years

CNC[C@H](O)[C@@H](O)[C@H](O)[C@H](O)CO.Cl [meglumine hydrochloride]
serum triglyceride levels (triglyceride): 322.66 ± 158.85 mg/dL | need for blood thinner medication [1]: able to discontinue the use of the blood thinner | blood glucose level ([2]; person with high blood sugar, decrease from 202): 75 mg/dL | weight loss ([2]; person with high blood sugar, without regain): 25 pounds | mental capacity ([2]; person): increased mental capacity | nail and hair health ([2]; person): improvement in nail and hair health | sexual stamina and sexual performance ([2]; person): dramatically improved sexual stamina and sexual performance | skin condition ([2]; person): improved | vitality or energy levels ([2]; person): improved vitality or energy levels | mental capacity [3]: increased mental capacity | muscle strength [3]: improved muscle strength | nail and hair health [3]: improvement in nail and hair health | sexual stamina and sexual performance [3]: improved sexual stamina and sexual performance | skin condition [3]: improved | vitality or energy levels [3]: improved vitality or energy levels | weight lost per month [3]: approximately 0.5 kg | body weight on average ([3]; from 108 kg): 102 kg | weight lost ([4]; scleroderma and type 2 diabetes, 500 mg to 2000 mg orally almost every day, first two and one half years): over 30 pounds | insulin and creatine/albumin levels ([4]; type 2 diabetes, 500 mg to 2000 mg orally over 5 years): normal | blood glucose level ([4]; type 2 diabetes, minimum dose of 500 mg three times a day): improved | HDL levels ([4]; 500 mg to 2000 mg orally): stayed the same | Lp-PLA level ([4]; 500 mg to 2000 mg orally): went down | fibrinogen homocysteine levels ([4]; 500 mg to 2000 mg orally): stayed the same | eye sight [4, 8]: improved | mental capacity [4, 8]: has not deteriorated | overall energy levels [4, 8]: increased | overall skin tone and texture [4, 8]: improved | CRP level ([4]; 500 mg to 2000 mg orally, from 0.58): < 0.3 | LDL level ([4]; 500 mg to 2000 mg orally, from 209, within the last 16 months): 160 mg/dL | cholesterol levels ([4]; 500 mg to 2000 mg orally, from 300, without diet change or any medicines): 265 mg/dL | Apo B:Apo A-I ratio (calculated) ([5]; month 8 (month 0: 0.73)): 0.45 | Lp(a) mass ([5]; month 8 (month 0: 5)): 6 mg/dL | HDL2-C ([5]; month 8 (month 0: 19)): 22 mg/dL | % sdLDL-C (calculated) ([5]; month 8 (month 0: 35)): 25% | HDL-P ([5]; month 8 (month 0: 44.3)): 43.7 μmol-L | sdLDL-C ([5]; month 8 (month 0: 56)): 28 mg/dL | Lipids: HDL-C ([5]; month 8 (month 0: 69)): 71 mg/dL | Apo B ([5]; month 8 (month 0: 133)): 79 mg/dL | Lipids: triglycerides ([5]; month 8 (month 0: 135)): 82 mg/dL | Lp-PLA2 ([5]; month 8 (month 0: 152)): 172 ng/mL | Lipids: LDL-C direct ([5]; month 8 (month 0: 160)): 111 mg/dL | Apo A-I ([5]; month 8 (month 0: 183)): 176 mg/dL | Lipids: non-HDL-C (calculated) ([5]; month 8 (month 0: 196)): 134 mg/dL | Lipids: total cholesterol ([5]; month 8 (month 0: 265)): 205 mg/dL | fibrinogen ([5]; month 8 (month 0: 332)): 334 mg/dL | LDL-P ([5]; month 8 (month 0: 2,250)): 1,529 nmol/L | hs-CRP ([5]; month 8 (month 0: <0.3)): 0.3 mg/L | body weight [6]: overall weight loss/control effect | increase in arm diameter [6]: 1 inch | mental capacity [6]: increased mental capacity | muscle-to-fat index [6]: increase in muscle-to-fat index | sexual stamina and sexual performance [6]: improved sexual stamina and sexual performance | skin condition [6]: improved | vitality or energy levels [6]: improved vitality or energy levels | military press weights ([6]; from 200 lb): 355 lb | blood pressure ([7]; person with high blood pressure, reduced from 220/110): around 130/78 | sleep and energy ([7]; person): better sleep and felt more energetic | body weight ([7]; person, at least one dress size): weight loss | urinary albumin/creatinine ratio (albumin/creatinine ratio; KK.Cg-A^+/+/J control mice, without meglumine 2.5±1.2): 1.6±1.8 | urinary albumin/creatinine ratio (albumin/creatinine ratio; KK.Cg-A^y/+/J mutant diabetic mice, without meglumine 17.3±15.4): 12.4±8.7
